Test results reported in patent US9034398B2, “Traditional Chinese drug comprising Danshen extracts and Sanqi extracts and use thereof” (TASLY Pharmaceutical Group Co., LTD., priority 2009, dated 2015).

Test system: rat myocardial I/R model
Test: Heart blood flow volume by laser Doppler perfusion imaging (LDPI)
Type: in vivo
Conditions: for heart blood flow volume regained compared to I/R group (LDPI images) / inhibitory effect on the decrease of the heart blood flow volume after I/R: 5 mg/kg BW/h intravenous drip; for heart blood flow volume regained compared to I/R group (LDPI images): at 30 min and 60 min after reperfusion, FIG. 4A; for inhibitory effect on the decrease of the heart blood flow volume after I/R: FIG. 5A
Protocol: The rats were anesthetized by intramuscularly injecting 20 wt % urethane (1.25 g/kg) and fixed in the supine position. Neck skin was incised and anterior cervical muscles were separated to expose the trachea. Tracheal intubation was performed. Another end of the intubation was attached to a Small Animal Ventilator (ALC-V8, Shanghai Aoteshai Biology Science and Technology Limited Company, Shanghai, China) so as to carry out pressure breathing under the following conditions: a respiratory ratio of 1:1, a respiratory frequency of 75 times/min and a tidal volume of 12 mL/kg. The rectal temperature, measured with YSI REF 401 (Yellow Spring, Ohio, USA), was maintained at 37 37.5° C. by using a thermal blanket. The chest was sterilized and opened at the intercostal space between 2nd 4th ribs near the left and right sternal border to expose the heart. The 3⁄8 curved needle threaded with 3-0 suture was used to pass through the site at 1 2 mm below the juncture of the pulmonary artery cone and the left atrial appendage. The suture was ligated. A polyethylene tubule was placed between the silk suture and myocardial tissue, the silk suture was […] to cause ischemia. Ligature was released 30 min later to establish an I/R model. Danshensu+I/R group (DLA+I/R group): a Danshensu aqueous solution (in normal saline, 1.25 mg/ml) was administrated at a dosage of 5 mg/kg BW/h by intravenous drip 20 min before the experiment and continued until the end of the entire experiment. Notoginsenoside R1+I/R group (R1+I/R group): a Notoginsenoside R1 aqueous solution (in normal saline, 1.25 mg/ml) was administrated at a dosage of 5 mg/kg BW/h by intravenous drip 20 min before the experiment and continued until the end of the entire experiment. Danshensu:R1(4:1)+I/R group (DR(4:1)+I/R group): an aqueous solution of Danshensu and Notoginsenoside R1 at a weight ratio of 4:1, dissolved in normal saline (1.25 mg/ml, namely, in the solution, the concentration of Danshensu is 1 mg/ml and the concentration of Notoginsenoside R1 is 0.25 mg/ml), was administrated at a dosage of 5 mg/kg BW/h (namely, in the total dosage, the dosage of Danshensu is 4 mg/kg BW/h and the dosage of Notoginsenoside R1 is 1 mg/kg BW/h) by intravenous drip 20 min before the experiment and continued until the end of the entire experiment. Danshensu:R1 (1:1)+I/R group (DR(1:1)+IR group): an aqueous solution of Danshensu and Notoginsenoside R1 at a weight ratio of 1:1, dissolved in normal saline (1.25 mg/ml, namely, in the solution, the concentration of Danshensu is 0.625 mg/ml and the concentration of Notoginsenoside R1 is 0.625 mg/ml), was administrated at a dosage of 5 mg/kg BW/h (namely, in the total dosage, the dosage of Danshensu is 2.5 mg/kg BW/h and the dosage of Notoginsenoside R1 is 2.5 mg/kg BW/h) by intravenous drip 20 min before the experiment and continued until the end of the entire experiment. […] Blood flow volumes on the surface of heart before ischemia, 5 min, 30 min after ischemia, and 5 min, 30 min, 60 min after reperfusion had been recorded by a computer-aided laser Doppler perfusion imager (LDPI) (PeriScan PIM3, […], Sweden). Images were measured and the data were evaluated with […] software. Change rate of blood flow volume of the heart was calculated by taking the blood flow volume before I/R as a baseline.

Compound	heart blood flow volume regained compared to I/R group (LDPI images)	inhibitory effect on the decrease of the heart blood flow volume after I/R (no time stated)	inhibitory effect on the decrease of the heart blood flow volume after I/R (at 5 min after reperfusion)	amelioration of heart perfusion flow caused by I/R (summary) (rats, summary statement of the description)
CC(C)=CCC[C@](C)(O[C@@H]1O[C@H](CO)[C@@H](O)[C@H](O)[C@H]1O)[C@H]1CC[C@]2(C)[C@@H]1[C@H](O)C[C@@H]1[C@@]3(C)CC[C@H](O)C(C)(C)[C@@H]3[C@@H](O[C@@H]3O[C@H](CO)[C@@H](O)[C@H](O)[C@H]3O[C@@H]3OC[C@@H](O)[C@H](O)[C@H]3O)C[C@]12C [Notoginsenoside R1]	regained to some extent	has not been observed to have significantly inhibitory effect	–	–
O=C(O)C(O)Cc1ccc(O)c(O)c1 (centres unmarked) [Danshensu, (3,4-dihydroxyphenyl)lactic acid]	regained to some extent	–	significantly inhibitory effect	transiently ameliorate
